{
  "source": "patent US20020062490A1",
  "about": "“Hypertension” (priority 2000, published 2002)",
  "key": {"[1]": {"test": "Blood pressure responses in anesthetized mice to infused GPCR agonists", "assay_type": "in vivo", "conditions": "for increase over resting MAP: 1 μg/kg angiotensin II; for MAP response (increase over resting MAP): 8 μg/kg phenylephrine; for decrease from resting MAP: 0.156 μg/kg isoproterenol, n=3; for change from resting diastolic pressure: 0.625 μg/kg isoproterenol; for diastolic pressure response: 10 μg/kg isoproterenol", "procedure": "In order to begin to understand the mechanisms involved in the GRK2 overexpression-induced hypertension and the receptors that are desensitized, blood pressure responses were measured in anesthetized mice following angiotensin II (FIG. 5A), phenylephrine (FIG. 5B) or isoproterenol (FIG. 5C) infusion. The response to 1 μg/kg angiotensin II was attenuated (NLC 91+12%, n=9 versus BK25 43+8% increase over resting MAP, n=4, p=0.02), as were responses to 8 μg/kg phenylephrine (NLC: 44±11% versus 4±5%, n=4, p=0.04). MAP responses to isoproterenol were not different in GRK2 overexpressing mice as compared with NLC. However, isoproterenol has a significant effect on heart rate that could affect MAP. Therefore, diastolic pressure was examined as a rough estimate of peripheral resistance.\nIn vivo Physiology: Mice were anesthetized with ketamine (100 mg/kg body weight) and xylazine (5 mg/kg body weight). Subsequently, a flexible plastic catheter (flame-stretched PE50 tubing) was placed in the left carotid artery to monitor arterial pressure and tunneled subcutaneously to exit at the nape of the neck. The catheter was then flushed with 100 μL of heparinized phosphate-buffered saline (PBS) (30 U/mL), sealed and attached to the skin between the scapulae. Twenty-four hours later, blood pressure measurements are recorded from awake, unrestrained mice. Intra-arterial blood pressure is recorded continuously through the carotid catheter using PowerLab (ADInstruments, Mountainview, Calif.) data acquisition and software. In both anesthetized and awake animals, systolic (SBP) and diastolic blood pressure (DBP), and heart rate were measured. Mean arterial pressure (MAP) was calculated as DBP+⅓(SBP- DBP). The recordings from animals in each experimental group were then integrated and averaged. To analyze acute blood pressure responses, a second catheter was placed in the jugular vein to infuse agonists. Immediately following an equilibration period, mice received a bolus injection at 2-5 min intervals."}, "[2]": {"system": "thoracic aorta ring segments", "test": "Responses of isolated thoracic aorta ring segments to GPCR agonists", "set-up": "species or system mice", "procedure": "In Vitro Physiology: Aorta were dissected and cut into 2.5 mm rings. Rings were then placed in a 37° C. chamber (Kent Scientific) containing Krebs-Hensileit buffer and bubbled with 95% O2/5% CO2. Two stainless steel wires were placed through each ring and one wire is attached to a fixed end. The other was attached to a force transducer and contraction is measured by force displacement (PowerLab, ADInstruments, Mountainview, Calif.). Responses to various agonists were tested in the presence and absence (mechanically scraped using a thin wire or chemical inhibition of nitric oxide synthase using 100 μM L-NAME) of endothelial cells. For isoproterenol responses, pretension was established at 60% of the maximum phenylephrine response (3×10^−7M PE).\nPharmacology: To analyze the effect of VSM GRK2 overexpression independent of autonomic influences on the peripheral vasculature, responses of isolated thoracic aorta ring segments to the GPCR agonists isoproterenol (βAR) and phenylephrine ([…]) were examined. Endothelial cell presence was first verified by relaxation responses to 10^−5M acetylcholine. […] Accordingly, pretension for the βAR studies was established using 3×10^−7M phenylephrine, which corresponded to 60% maximum phenylephrine stimulation in both NLC and transgenic mice. […]"}, "aortic VSM cells [3]": {"system": "aortic VSM cells", "test": "Intracellular cAMP accumulation (adenylyl cyclase activity) in cultured aortic VSM cells", "assay_type": "cell-based", "conditions": "aortic VSM cells from SM22α-GRK2-25 mice, compared with NLC cells", "procedure": "Cell Culture: Primary cultures of VSM from thoracic aortas and vena cava were obtained and cultured as described (Chen et al, J. Biol. Chem. 270:30980-30988 (1995)). To determine adenylyl cyclase activity, cultured cells were grown to four days post-confluence. Cells were then labeled overnight in 3.0 μCi/mL [^3H]adenine (DuPont/NEN) in medium 199 and then preincubated in medium 199 with 10 mM Hepes and 1 mM 3-isobutyl-1-methylxanthine (IBMX) for 30 min. Cells were then stimulated with the appropriate concentration of isoproterenol or […] for 15 minutes. Following incubation, cAMP was determined by anion exchange chromatography and a percent incorporation of the total [^3H] uptake was calculated. To determine if enhanced expression and activity of GRK2 seen in cultured VSM cells from SM22α-GRK2 mice could exert an effect on signaling, intracellular cAMP accumulation in cultured aortic VSM cells in response to the βAR agonist isoproterenol was examined."}, "aortic VSM cells [4]": {"system": "aortic VSM cells", "test": "MAPK (ERK1/2) activity after βAR stimulation in aorta VSM cells", "assay_type": "cell-based, mice", "conditions": "10^−5M isoproterenol, 5 minutes", "procedure": "MAPK Activity: To study MAPK activity, cells were stimulated with isoproterenol at the described concentration for 5 minutes. Cells were then harvested and homogenized in ice-cold RIPA buffer with 1 mM sodium orthovanadate (Iaccarino et al, Proc. Natl. Acad. Sci. USA 96:3945-3950 (1999b)). MAPK activity as assessed by phosphorylated protein levels was performed by activity assays as previously described (Iaccarino et al, Proc. Natl. Acad. Sci. USA 96:3945-3950 (1999b)). Protein immunoblotting for the activated phosphorylated forms of ERK1/2 and JNK1/3 (New England Biolabs) was normalized to total MAPK levels using antibodies specific to total ERK1/2 and JNK1 (Santa Cruz Biotechnologies, California).\nAs a second assay to measure βAR mediated signaling in VSM cells from GRK2 transgenic and NLC mice, we investigated MAPK activity after βAR stimulation. Two MAPKs were studied, extracellular-regulated kinase (ERK1/2 or p42/p44 MAPKs) and c-jun kinase (JNK). FIG. 7C is a representative autoradiograph of the ability of immunoprecipitated ERK1/2 or JNK1/3 to phosphorylates their in vitro substrates myelin basic protein (MBP) or GST-c-jun, respectively, after the addition of different doses of isoproterenol to aortic VSM cells from NLC and SM22α-GRK2-25 mice. […] This was also the case for the activity of JNK1/3 and its ability to phosphorylate GST-c-jun (FIG. 7C). […]"}},
  "note": "“And” between values parts separate entries of the source, which are not always exact repeats. Identical values can stand only once.",
  "data": [
    {"compound": "angiotensin II [GPCR agonist infused to raise blood pressure]", "values": [
      {"measurement": "increase over resting MAP", "setting": "[1]; anesthetized BK25 (GRK2 overexpressing) mice, n=4", "result": "43+8% and 43±8%"},
      {"measurement": "increase over resting MAP", "setting": "[1]; anesthetized NLC (WT) mice, n=9", "result": "91+12% and 91±12%"}
    ]},
    {"compound": "CNC[C@H](O)c1cccc(O)c1", "note": "[phenylephrine]", "values": [
      {"measurement": "MAP response (increase over resting MAP)", "setting": "[1]; anesthetized GRK2 overexpressing (BK25) mice, n=4", "result": "4±5", "unit": "%"},
      {"measurement": "MAP response (increase over resting MAP)", "setting": "[1]; anesthetized NLC (WT) mice", "result": "44±11", "unit": "%"},
      {"measurement": "fraction of maximum phenylephrine stimulation (pretension)", "setting": "[2]; 3×10^−7M phenylephrine, aorta rings of both NLC and transgenic mice", "result": 60, "unit": "%"},
      {"measurement": "constriction of aorta rings, NLC compared with SM22α-GRK2-25 mice", "setting": "[2]; cumulative dose response", "result": "similar"}
    ]},
    {"compound": "CC(C)NCC(O)c1ccc(O)c(O)c1", "note": "(stereo not shown) [isoproterenol]", "values": [
      {"measurement": "decrease from resting MAP", "setting": "[1]; anesthetized NLC mice", "result": "−30±2.8", "unit": "mmHg"},
      {"measurement": "decrease from resting MAP", "setting": "[1]; anesthetized SM22α-GRK2 mice", "result": "−4.7±3.2", "unit": "mmHg"},
      {"measurement": "change from resting diastolic pressure", "setting": "[1]; anesthetized BK25 mice, n=4", "result": "−11±3", "unit": "%"},
      {"measurement": "change from resting diastolic pressure", "setting": "[1]; anesthetized NLC mice, n=9", "result": "−39±8", "unit": "%"},
      {"measurement": "diastolic pressure response", "setting": "[1]; anesthetized BK25 mice, n=4", "result": "−11±3", "unit": "%"},
      {"measurement": "diastolic pressure response", "setting": "[1]; anesthetized WT mice, n=9", "result": "−39±8", "unit": "%"},
      {"measurement": "MAP responses, GRK2 overexpressing mice compared with NLC", "setting": "[1]; anesthetized mice, cumulative doses of isoproterenol", "result": "not different"},
      {"measurement": "cAMP generation", "setting": "aortic VSM cells [3]", "result": "minimal increase"},
      {"measurement": "induction of phosphorylation status of ERK1/2", "setting": "aortic VSM cells [4]; NLC VSM cells", "result": "robust increase"},
      {"measurement": "induction of phosphorylation status of ERK1/2 (activation)", "setting": "aortic VSM cells [4]; SM22α-GRK2-25 VSM cells", "result": "virtually abolished"}
    ]}
  ]
}
